The subject of series [1] is rats. In words: Respiratory depression quantified by pulse oximetry (SpO2) after single epidural bolus. The settings on record: for respiratory depression (decrease in SpO2): single epidural dose 10 to 2000 μg, sulfate. On the procedure: Respiratory depression was quantified by pulse oximetry. The animals were removed from their cages, placed in polystyrene rat restraints (Plas Labs, Lansing, Mich.) and allowed to acclimate for 5 minutes. […] Pulse oximetry was performed on 5 to 6 animals at each data point, except for the 50 μg dose where 3 animals were used. The pulse oximetry values of percent hemoglobin oxygen saturation (SpO2) were monitored continuously in real time. The maximum value obtaining during the 3-minute recording period was defined as oxygen saturation.

Series [2] concerns rats. The series can be described thus: Antinociception, hot plate test after epidural (or subcutaneous) dose. The settings on record: 250 μg epidural. The class given is in vivo, Sprague-Dawley rats. In general terms: Thermal pain tests record how soon the animal reacts.
Protocol: Baseline values of nociception following placement of the epidural catheter were determined by subjecting the animals to standard hot plate (52.5±0.5° C.) testing as described in M. S. Wallace et al., (Anesth. Analg. 79:778-786, 1994). Response latency to nociception (in seconds) was measured from the time when the animals were placed on the hot plate to the time when they either licked their hind paw or jumped. The baseline (pretreatment) response latency value was defined as 0% of the maximum possible analgesia (MPA) in each experimental animal. […] Following epidural administration of the test solutions via the catheter emplanted as described above, the epidural catheter was flushed with 10 μl of 0.9% sodium chloride.
Antinociception was determined in 5 or 6 animals for each dose and each drug. To prevent tissue damage to the footpads, a cutoff time of 60 seconds was used. Accordingly, 100% MPA was defined as antinociception lasting ≧60 seconds.
Efficacy and respiratory depression curves were plotted as a function of time for each dose administered. Hot plate responses were calculated as a percentage of the maximum possible analgesia (%MPA) as described in Wallace et al. (supra): [formula]
All areas under the curves were calculated by the trapezoidal rule to the last data point using the RSTRIP computer program [Micromath, Salt Lake City, Utah]. […]

Each structure is given as a SMILES string.

In the case of `CN1CC[C@]23c4c5ccc(O)c4O[C@H]2[C@@H](O)C=C[C@H]3[C@H]1C5.O=S(=O)(O)O` [MS, morphine sulfate], the delayed respiratory depression result in the series on rats [1] (single epidural dose) is given as “no delayed respiratory depression”. Also, the “respiratory depression (decrease in SpO2)” value in the series on rats [1] (listed as free morphine) is on record as “did cause respiratory suppression at high dosages”. In the series with rats [1], the “respiratory depression (decrease in SpO2)” value is given as “dose-dependent increase in respiratory depression”. For the same compound, in the series on rats [2], the “peak effect (% of maximum possible analgesia)” value was ~100 % MPA and the “time to decrease to 50% MPA” value is recorded as 0.17 days.

These data come from patent publication US6428529B1, “Epidural administration of therapeutic compounds with sustained rate of release” (SkyePharma Inc., priority 1995, dated 2002).
